In US20240246943A1, “MULTIFACETED APPROACH TO NOVEL INTERLEUKIN-6 INHIBITORS” (UNIVERSITY OF FLORIDA RESEARCH FOUNDATION, INCORPORATED, priority 2021, published 2024):
Like-named read-outs stand apart in the source and are kept apart here. Marks after values point to notes of the source that are not given here. Each block holds one molecule with its values, some of them ahead of it.

How the values were obtained:
Type in all cases: cell-based
[1] = test system: MDA-MB-231 breast cancer cells; test: MTT cell viability assay, MDA-MB-231
Description: (§1) Cell viability of MDA-MB-231 breast cancer cells was evaluated by using the MTT assay in triple replicates in one experiment and repeated for three times (FIG. 3). […] The cells were incubated at 37° C. for a period of 24 hours. Escalating concentrations of IL-6/gp130 inhibitors (e.g., compounds of Formula (A), (B), (C), (D), (E), or (F) including LLM-418, bazedoxifene, LS-28-3, and COMP-D (LS-101-D)) were added in triplicate to the plates in the presence of 10% FBS. After incubation for 72 hours (unless otherwise noted), a stock solution of MTT (0.5 mg/ml) was then added to each well containing the treated cells, followed by incubation at 37° C. for 3 h. After removal of medium, the MTT dye was dissolved with spectrophotometric grade DMSO and the absorbance was read at 570 nm. The IC50 value is determined by interpolation based on the absorbance value halfway between positive and negative controls.

[2] = test system: SUM159 breast cancer cells; test: MTT cell viability assay, SUM159; conditions: for IC50 / IC50 Values in Breast Cancer Cell Lines, SUM159 / SUM159 IC50: 72 hours, Inactive = no measurable activity at 20 μM
Description: Cell viability of MDA-MB-231 breast cancer cells was evaluated by using the MTT assay in triple replicates in one experiment and repeated for three times (FIG. 3). MDA-MB-231 SUM159, SUM159 […], MDA-MB-231 breast cancer cells or SUM149 or HCC1937 BRCA mutant breast cancer cells were seeded in 96-well plates at a density of 3,000 cells per well. The cells were incubated at 37° C. for a period of 24 hours. Escalating concentrations of IL-6/gp130 inhibitors (e.g., compounds of Formula (A), (B), (C), (D), (E), or (F) including LLM-418, bazedoxifene, LS-28-3, and COMP-D (LS-101-D)) were added in triplicate to the plates in the presence of 10% FBS. After incubation for 72 hours (unless otherwise noted), a stock solution of MTT (0.5 mg/ml) was then added to each well containing the treated cells, followed by incubation at 37° C. for 3 h. After removal of medium, the MTT dye was dissolved with spectrophotometric grade DMSO and the absorbance was read at 570 nm. The IC50 value is determined by interpolation based on the absorbance value halfway between positive and negative controls.

[3] = test system: SUM159 gp130ko breast cancer cells; test: MTT cell viability assay, SUM159 gp130ko; conditions: 72 hours, read-out: IC50 Values in Breast Cancer Cell Lines, SUM159 gp130ko
Description: as §1

[4] = test system: MDA-MB-231 Bone Metastatic breast cancer cells; test: MTT cell viability assay, MDA-MB-231 Bone Metastatic; conditions: 72 hours
Description: as §1

IL-6 induced p-STAT3 = test: Selectivity study, western blot, T47D cells, IL-6 stimulation; conditions: T47D breast cancer cells, compound 2 hours, then cytokine 30 minutes
Description: (§2) Cells were harvested and lysed in cold radioimmunoprecipitation assay (RIPA) lysis buffer containing proteasome inhibitor cocktail and phosphatase inhibitor cocktail. The protein concentrations were determined using the BCA Protein Assay kit. After adding the loading buffer and boiling at 95° C. for 10 minutes, equivalent amounts of proteins were loaded on and separated by SDS-PAGE, and then were transferred to PVDF membranes. Membranes were probed with primary antibodies (1:1000) against gp130 and GAPDH. Membranes were analyzed using Enhanced Chemiluminescence Plus reagents and either scanned with the Storm Scanner (Amersham Pharmacia Biotech, Inc., Piscataway, NJ) or imaged with ChemiDoc MP imaging system (Bio-Rad, Hercules, CA).
(§3) Inhibition of downstream STAT3 phosphorylation was performed. T47D breast cancer cells, which lack endogenous IL-6, were treated with LLM418-MCBu for 2 hours. Then, cytokine was administered for 30 minutes (IL-6, INF, LIF, or OSM). Western blot conducted afterwards to assess dose-dependent inhibition of IL-6 signaling (or lack thereof) (FIG. 5).

induced p-STAT1 = test: Selectivity study, western blot, T47D cells, IFN stimulation; conditions: T47D breast cancer cells, compound, then cytokine
Description: as §2, §3

[5] = Homo sapiens, MDA-MB-231, Table 3 batch studies (independent from Table 1), MTT, 72 hours, Inactive = no measurable activity at 20 μM, read-out: MDA-MB-231 IC50
[6] = SUM159, Table 3 batch studies (independent from Table 1), read-out: SUM159 IC50
[7] = Homo sapiens, MDA-MB-231, Table 1 batch studies, MTT, 72 hours, Inactive = no measurable activity at 20 μM, read-out: IC50 Values in Breast Cancer Cell Lines, MDA-MB-231
[8] = SUM159, Table 1 batch studies, read-out: IC50 Values in Breast Cancer Cell Lines, SUM159
[9] = Table 1 batch studies, MTT, 72 hours, Inactive = no measurable activity at 20 μM, read-out: IC50 Values in Breast Cancer Cell Lines, MDA-MB-231
[10] = Table 3 batch studies (independent from Table 1), MTT, 72 hours, Inactive = no measurable activity at 20 μM, read-out: MDA-MB-231 IC50
[11] = Table 1 batch studies, read-out: IC50 Values in Breast Cancer Cell Lines, SUM159
[12] = Table 3 batch studies (independent from Table 1), read-out: SUM159 IC50
[13] = Homo sapiens, MDA-MB-231, Table 1 batch studies, read-out: IC50 Values in Breast Cancer Cell Lines, MDA-MB-231 Bone Metastatic
[14] = Homo sapiens, MDA-MB-231, Table 3 batch studies (independent from Table 1), read-out: MDA-MB-231 Bone Metastatic IC50
[15] = Table 1 batch studies, MTT, 72 hours, Inactive = no measurable activity at 20 μM
[16] = Table 3 batch studies (independent from Table 1), MTT, 72 hours, Inactive = no measurable activity at 20 μM
[17] = Table 3 batch studies (independent from Table 1)

Compound: Cc1c(-c2ccc(O)cc2)n(Cc2ccc(OCCN3CCCCCC3)cc2)c2ccc(O)cc12 [Bazedoxifene, bazedoxifene, reference compound]
IC50 [1, 5]: 12 µM
IC50 [2, 6]: 7.1 µM

Compound: O=C(Nc1ccccc1-n1cccc1)c1ccc(OCCCN2CCCCC2)cc1 [LLM4-S1, N-(2-(1H-pyrrol-1-yl)phenyl)-4-(3-(piperidin-1-yl)propoxy)benzamide]
IC50 [1, 7]: 53.1 µM
IC50 [1, 5]: 53.1 µM
IC50 [2, 8]: 58.7 µM
IC50 [2, 6]: 58.7 µM

Compound: O=C(Nc1cc(F)ccc1N1CCCC1)c1ccc(OCCCN2CCCCC2)cc1 [LLM4-S2, N-(5-fluoro-2-(pyrrolidin-1-yl)phenyl)-4-(3-(piperidin-1-yl)propoxy)benzamide]
IC50 [1, 7]: 47.8 µM
IC50 [1, 5]: 47.8 µM
IC50 [2, 8]: 24.7 µM
IC50 [2, 6]: 24.7 µM

Compound: O=C(Nc1ccccc1N1CCCC1)c1ccc(OCCCN2CCCCC2)cc1 [LLM4-S3, 4-(3-(piperidin-1-yl)propoxy)-N-(2-(pyrrolidin-1-yl)phenyl)benzamide]
IC50 [1, 7]: 49.1 µM
IC50 [1, 5]: 49.1 µM
IC50 [2, 8]: 46.1 µM
IC50 [2, 6]: 46.1 µM

Compound: O=C(Nc1cc(F)ccc1-n1cccc1)c1ccc(OCCCN2CCCCC2)cc1 [LLM4]
IC50 [1, 9]: 47.7 µM
IC50 [1, 10]: 47.7 µM
IC50 [2, 11]: 31.1 µM
IC50 [2, 12]: 31.1 µM

Compound: O=C(Nc1ccccc1-c1ccn[nH]1)c1ccc(OCCN2CCCCC2)cc1 [LLM418, N-(2-(1H-pyrazol-5-yl)phenyl)-4-(2-(piperidin-1-yl)ethoxy)benzamide]
IC50 [1, 7]: 25.1 µM
IC50 [1, 5]: 28.1 µM
IC50 [2, 8]: 16.3 µM
IC50 [2, 6]: 16.3 µM
IC50 ([3]; SUM159, Table 1 batch studies): 22.5 µM
IC50 [4, 13]: 23.7 µM
IC50 [4, 14]: 23.7 µM

Compound: CC(C)[C@H]1COC(=O)N1c1ccc(C(=O)Nc2ccccc2-c2cc[nH]n2)cc1 [LS-28-2, (S)—N-(2-(1H-pyrazol-3-yl)phenyl)-4-(4-isopropyl-2-oxooxazolidin-3-yl)benzamide]
Percent cells remaining after treatment with 20 μM compound, MDA-MB-231 ([1]; Table 1 batch studies, MTT): 21%*
Percent cells remaining after treatment with 20 μM compound, MDA-MB-231 ([1]; Table 3 batch studies, MTT): 21%*
Percent cells remaining after treatment with 20 μM compound, SUM159 ([2]; Table 1 batch studies): 33%*
Percent cells remaining after treatment with 20 μM compound, SUM159 ([2]; Table 3 batch studies): 33%*

Now from value to molecule, other results behind:

IC50 [1, 7]: 17.5 µM
IC50 [1, 5]: 17.5 µM
IC50 [2, 8]: 13.5 µM
IC50 [2, 6]: 17.4 µM
IC50 ([3]; SUM159, Table 1 batch studies): 18.2 µM
IC50 [4, 13]: 16.8 µM
IC50 [4, 14]: 16.8 µM
Compound: CCn1ccc(-c2ccccc2NC(=O)c2ccc(OCCN3CCCCC3)cc2)n1 [LLM418-Et, N-(2-(1-ethyl-1H-pyrazol-3-yl)phenyl)-4-(2-(piperidin-1-yl)ethoxy)benzamide]
Inhibition of IL-6 induced p-STAT3 (IL-6 induced p-STAT3): inhibit both IL-6 induced p-STAT3 and IFN-7 induced p-STAT1
Inhibition of IFN-7 induced p-STAT1 (induced p-STAT1): inhibit both IL-6 induced p-STAT3 and IFN-7 induced p-STAT1

IC50 [1, 7]: 169 µM
IC50 [1, 5]: 169 µM
IC50 [2, 8]: 16 µM
IC50 [2, 6]: 16 µM
Compound: O=C(Nc1ccccc1-c1ccn(CC(F)(F)F)n1)c1ccc(OCCN2CCCCC2)cc1 [LLM418-MCF3, 4-(2-(piperidin-1-yl)ethoxy)-N-(2-(1-(2,2,2-trifluoroethyl)-1H-pyrazol-3-yl)phenyl)benzamide]

IC50 [1, 7]: 5.8 µM
IC50 [1, 5]: 5.8 µM
Compound: CCCn1ccc(-c2ccccc2NC(=O)c2ccc(OCCN3CCCCC3)cc2)n1 [LLM418-Pr, N-(2-(1-propyl-1H-pyrazol-3-yl)phenyl)-4-(2-(piperidin-1-yl)ethoxy)benzamide]

IC50 ([1]; Homo sapiens, MDA-MB-231, Table 1 batch studies, 48-hour MTT, read-out: IC50, MDA-MB-231, 48-hour MTT): 11.3 µM
IC50 ([1]; Homo sapiens, MDA-MB-231, Table 3 batch studies, 48-hour MTT, read-out: MDA-MB-231 IC50, 48-hour MTT): 11.3 µM
Compound: c1ccc2c(c1)nc(-c1ccc(OCCN3CCCCC3)cc1)n1nccc21 [LLM418-SC, 5-(4-(2-(piperidin-1-yl)ethoxy)phenyl)pyrazolo[1,5-c]quinazoline]

IC50 [1, 10]: 67 µM
IC50 [2, 12]: 16 µM
Compound: CC1(C)O[C@@H]2[C@@H](CO[C@@]3(Cn4cc(-c5cccc(NC(=O)c6ccc(OCCN7CCCCC7)cc6)c5)nn4)OC(C)(C)O[C@@H]23)O1 [LS-TF-3P]

IC50 [1, 9]: 18.4 µM
IC50 [1, 10]: 18.4 µM
IC50 [2, 11]: 26.1 µM
IC50 [2, 12]: 26.1 µM
IC50 ([3]; Table 1 batch studies): 26.7 µM
IC50 ([4]; Table 3 batch studies (independent from Table 1), read-out: MDA-MB-231 Bone Metastatic IC50): 26.7 µM
Compound: CC1(C)O[C@@H]2[C@@H](CO[C@@]3(Cn4cc(-c5ccc(NC(=O)c6ccc(OCCN7CCCCC7)cc6)cc5)nn4)OC(C)(C)O[C@@H]23)O1 [LS-TF-4P]

IC50 Values in Breast Cancer Cell Lines, MDA-MB-231 [1, 15]: Inactive
MDA-MB-231 IC50 [1, 16]: Inactive
IC50 Values in Breast Cancer Cell Lines, SUM159 ([2]; Table 1 batch studies): Inactive
SUM159 IC50 [2, 17]: Inactive
Compound: O=C(Nc1ccccc1-c1cn([C@@H]2OC[C@@H](O)[C@H](O)[C@H]2O)nn1)c1ccc(OCCN2CCCCC2)cc1 [LS-TX-2, 4-(2-(piperidin-1-yl)ethoxy)-N-(2-(1-((2R,3R,4S,5R)-3,4,5-trihydroxytetrahydro-2H-pyran-2-yl)-1H-1,2,3-triazol-4-yl)phenyl)benzamide·acetic acid]

IC50 Values in Breast Cancer Cell Lines, MDA-MB-231 [1, 15]: Inactive
MDA-MB-231 IC50 [1, 16]: Inactive
IC50 Values in Breast Cancer Cell Lines, SUM159 ([2]; Table 1 batch studies): Inactive
SUM159 IC50 [2, 17]: Inactive
Compound: O=C(Nc1cccc(-c2cn([C@@H]3OC[C@@H](O)[C@H](O)[C@H]3O)nn2)c1)c1ccc(OCCN2CCCCC2)cc1 [LS-TX-3, 4-(2-(piperidin-1-yl)ethoxy)-N-(3-(1-((2R,3R,4S,5R)-3,4,5-trihydroxytetrahydro-2H-pyran-2-yl)-1H-1,2,3-triazol-4-yl)phenyl)benzamide·acetic acid]

IC50 Values in Breast Cancer Cell Lines, MDA-MB-231 [1, 15]: Inactive
MDA-MB-231 IC50 [1, 16]: Inactive
IC50 Values in Breast Cancer Cell Lines, SUM159 ([2]; Table 1 batch studies): Inactive
SUM159 IC50 [2, 17]: Inactive
Compound: O=C(Nc1ccc(-c2cn([C@@H]3OC[C@@H](O)[C@H](O)[C@H]3O)nn2)cc1)c1ccc(OCCN2CCCCC2)cc1 [LS-TX-4, 4-(2-(piperidin-1-yl)ethoxy)-N-(4-(1-((2R,3R,4S,5R)-3,4,5-trihydroxytetrahydro-2H-pyran-2-yl)-1H-1,2,3-triazol-4-yl)phenyl)benzamide·acetic acid]
